Laboratory results published in patent publication US4364958A, “1-Substituted-3-cycloalkyl-sulfonyl-pyrrolidine-2,5-dione derivatives and fungicidal compositions thereof” (Chinoin Gyogyszer es Vegyeszeti Termekek Gyara Rt., priority 1979, dated 1982).
≈ marks a conversion by molar mass, not a printed value. Where two headings read alike, the source gives them in different places. Each block holds one molecule with its values, some of them ahead of it.

Assays:
Assay in all cases: minimal inhibitory concentration in Sabouraud medium
Format in all cases: cell-based
[1] = system: Penicillium digitatum CBS.31948; settings: Penicillium digitatum
Text: Penicillium digitatum CBS.31948
(§1) As a medium Saboroud medium was employed.

[2] = system: Trichophyton rubrum CBS.30338; settings: Trichophyton rubrum
Text: Trichophyton rubrum CBS.30338
as §1

[3] = system: Saccharomyces cerevisiae OKI.1282; settings: Saccharomyces cerevisiae
Text: Saccharomyces cerevisiae OKI.1282
as §1

[4] = system: Aspergillus niger CBS.12648; settings: Aspergillus niger
Text: Aspergillus niger CBS.12648
as §1

[5] = system: Epidermophyton floccosum OKI/IV.; settings: Epidermophyton floccosum, read-out: minimal inhibitory concentration
Text: Epidermophyton floccosum OKI/IV.
as §1

[6] = system: Sporotrichum schenkii CBS.34035; settings: Sporotrichum
Text: Sporotrichum schenkii CBS.34035
as §1

[7] = system: Trichophyton mentagrophytes CBS.50148; settings: Trichophyton mentagrophytes, read-out: minimal inhibitory concentration
Text: Trichophyton mentagrophytes CBS.50148
as §1

[8] = system: Candida albicans CBS.562; settings: Candida albicans
Text: Candida albicans CBS.562 "2"
as §1

Structure (SMILES): O=C1CC(S(=O)(=O)C2CCCCC2)C(=O)N1c1ccccc1Cl (centres unmarked) [1-(2-chlorophenyl)-3-cyclohexyl-sulfonyl-pyrrolidine-2,5-dione]
MIC ([1]; CBS.31948, 72 h, 72 hours): 25 µg/mL (≈ 70.3 µM) | MIC ([1]; CBS.31948, 144 h, 144 hours): 50 µg/mL (≈ 141 µM) | MIC ([1]; CBS.31948, 288 h, 288 hours): 50 µg/mL (≈ 141 µM) | MIC ([2]; CBS.30338, 72 h, 72 hours): 2.5 µg/mL (≈ 7.03 µM) | MIC ([2]; CBS.30338, 144 h, 144 hours): 10 µg/mL (≈ 28.1 µM) | MIC ([2]; CBS.30338, 288 h, 288 hours): 10 µg/mL (≈ 28.1 µM) | MIC ([3]; OKI.1282, 24 h, 24 hours): 25 µg/mL (≈ 70.3 µM) | MIC ([3]; OKI.1282, 48 h, 48 hours): 75 µg/mL (≈ 211 µM) | MIC ([4]; CBS.12648, 72 h, 72 hours): 50 µg/mL (≈ 141 µM) | MIC ([4]; CBS.12648, 144 h, 144 hours): 150 µg/mL (≈ 422 µM) | MIC ([4]; CBS.12648, 288 h, 288 hours): 150 µg/mL (≈ 422 µM) | MIC ([5]; 72 h): 2.5 µg/mL (≈ 7.03 µM) | MIC ([5]; 144 h): 5 µg/mL (≈ 14.1 µM) | MIC ([5]; 288 h): 10 µg/mL (≈ 28.1 µM) | MIC ([6]; CBS.34035, 72 h, 72 hours): 10 µg/mL (≈ 28.1 µM) | MIC ([6]; CBS.34035, 144 h, 144 hours): 50 µg/mL (≈ 141 µM) | MIC ([6]; CBS.34035, 288 h, 288 hours): 50 µg/mL (≈ 141 µM) | MIC ([7]; CBS.50148, 72 h, 72 hours): 2.5 µg/mL (≈ 7.03 µM) | MIC ([7]; CBS.50148, 144 h, 144 hours): 5 µg/mL (≈ 14.1 µM) | MIC ([7]; CBS.50148, 288 h, 288 hours): 5 µg/mL (≈ 14.1 µM) | MIC ([8]; CBS.562, 24 h, 24 hours): 50 µg/mL (≈ 141 µM) | MIC ([8]; CBS.562, 48 h, 48 hours): 50 µg/mL (≈ 141 µM)

Structure (SMILES): O=C1CC(S(=O)(=O)C2CCCCC2)C(=O)N1c1cccc([N+](=O)[O-])c1 (centres unmarked) [1-(3-nitrophenyl)-3-cyclohexyl-sulfonyl-pyrrolidine-2,5-dione]
MIC ([1]; CBS.31948, 72 h, 72 hours): 25 µg/mL (≈ 68.2 µM) | MIC ([1]; CBS.31948, 144 h, 144 hours): 50 µg/mL (≈ 136 µM) | MIC ([1]; CBS.31948, 288 h, 288 hours): 50 µg/mL (≈ 136 µM) | MIC ([2]; CBS.30338, 72 h, 72 hours): 5 µg/mL (≈ 13.6 µM) | MIC ([2]; CBS.30338, 144 h, 144 hours): 5 µg/mL (≈ 13.6 µM) | MIC ([2]; CBS.30338, 288 h, 288 hours): 5 µg/mL (≈ 13.6 µM) | MIC ([3]; OKI.1282, 24 h, 24 hours): 75 µg/mL (≈ 205 µM) | MIC ([3]; OKI.1282, 48 h, 48 hours): 75 µg/mL (≈ 205 µM) | MIC ([4]; CBS.12648, 72 h, 72 hours): 75 µg/mL (≈ 205 µM) | MIC ([4]; CBS.12648, 144 h, 144 hours): 150 µg/mL (≈ 409 µM) | MIC ([4]; CBS.12648, 288 h, 288 hours): 150 µg/mL (≈ 409 µM) | MIC ([5]; 72 h): 5 µg/mL (≈ 13.6 µM) | MIC ([5]; 144 h): 10 µg/mL (≈ 27.3 µM) | MIC ([5]; 288 h): 10 µg/mL (≈ 27.3 µM) | MIC ([6]; CBS.34035, 72 h, 72 hours): 25 µg/mL (≈ 68.2 µM) | MIC ([6]; CBS.34035, 144 h, 144 hours): 75 µg/mL (≈ 205 µM) | MIC ([6]; CBS.34035, 288 h, 288 hours): 75 µg/mL (≈ 205 µM) | MIC ([7]; CBS.50148, 72 h, 72 hours): 2.5 µg/mL (≈ 6.82 µM) | MIC ([7]; CBS.50148, 144 h, 144 hours): 5 µg/mL (≈ 13.6 µM) | MIC ([7]; CBS.50148, 288 h, 288 hours): 25 µg/mL (≈ 68.2 µM) | MIC ([8]; CBS.562, 24 h, 24 hours): 50 µg/mL (≈ 136 µM) | MIC ([8]; CBS.562, 48 h, 48 hours): 100 µg/mL (≈ 273 µM)

Results, then the molecule that gave them:

MIC ([1]; CBS.31948, 72 h, 72 hours): 100 µg/mL (≈ 285 µM) | MIC ([1]; CBS.31948, 144 h, 144 hours): 100 µg/mL (≈ 285 µM) | MIC ([1]; CBS.31948, 288 h, 288 hours): 150 µg/mL (≈ 427 µM) | MIC ([2]; CBS.30338, 72 h, 72 hours): 10 µg/mL (≈ 28.5 µM) | MIC ([2]; CBS.30338, 144 h, 144 hours): 10 µg/mL (≈ 28.5 µM) | MIC ([2]; CBS.30338, 288 h, 288 hours): 10 µg/mL (≈ 28.5 µM) | MIC ([3]; OKI.1282, 24 h, 24 hours): 25 µg/mL (≈ 71.1 µM) | MIC ([3]; OKI.1282, 48 h, 48 hours): 50 µg/mL (≈ 142 µM) | MIC ([4]; CBS.12648, 72 h, 72 hours): 75 µg/mL (≈ 213 µM) | MIC ([4]; CBS.12648, 144 h, 144 hours): 100 µg/mL (≈ 285 µM) | MIC ([4]; CBS.12648, 288 h, 288 hours): 150 µg/mL (≈ 427 µM) | MIC ([5]; 72 h): 5 µg/mL (≈ 14.2 µM) | MIC ([5]; 144 h): 25 µg/mL (≈ 71.1 µM) | MIC ([5]; 288 h): 75 µg/mL (≈ 213 µM) | MIC ([6]; CBS.34035, 72 h, 72 hours): 5 µg/mL (≈ 14.2 µM) | MIC ([6]; CBS.34035, 144 h, 144 hours): 10 µg/mL (≈ 28.5 µM) | MIC ([6]; CBS.34035, 288 h, 288 hours): 10 µg/mL (≈ 28.5 µM) | MIC ([7]; CBS.50148, 72 h, 72 hours): 2.5 µg/mL (≈ 7.11 µM) | MIC ([7]; CBS.50148, 144 h, 144 hours): 75 µg/mL (≈ 213 µM) | MIC ([7]; CBS.50148, 288 h, 288 hours): 100 µg/mL (≈ 285 µM) | MIC ([8]; CBS.562, 24 h, 24 hours): 50 µg/mL (≈ 142 µM) | MIC ([8]; CBS.562, 48 h, 48 hours): 150 µg/mL (≈ 427 µM)
Structure (SMILES): COc1ccc(N2C(=O)CC(S(=O)(=O)C3CCCCC3)C2=O)cc1 (centres unmarked) [1-(4-Methoxyphenyl)-3-cyclohexyl-sulfonyl-pyrrolidine-2,5-dione]

MIC ([1]; CBS.31948, 72 h, 72 hours): 75 µg/mL (≈ 206 µM) | MIC ([1]; CBS.31948, 144 h, 144 hours): 100 µg/mL (≈ 275 µM) | MIC ([1]; CBS.31948, 288 h, 288 hours): 150 µg/mL (≈ 413 µM) | MIC ([2]; CBS.30338, 72 h, 72 hours): 10 µg/mL (≈ 27.5 µM) | MIC ([2]; CBS.30338, 144 h, 144 hours): 25 µg/mL (≈ 68.8 µM) | MIC ([2]; CBS.30338, 288 h, 288 hours): 50 µg/mL (≈ 138 µM) | MIC ([3]; OKI.1282, 24 h, 24 hours): 25 µg/mL (≈ 68.8 µM) | MIC ([3]; OKI.1282, 48 h, 48 hours): 50 µg/mL (≈ 138 µM) | MIC ([4]; CBS.12648, 72 h, 72 hours): 75 µg/mL (≈ 206 µM) | MIC ([4]; CBS.12648, 144 h, 144 hours): 150 µg/mL (≈ 413 µM) | MIC ([4]; CBS.12648, 288 h, 288 hours): 150 µg/mL (≈ 413 µM) | MIC ([5]; 72 h): 25 µg/mL (≈ 68.8 µM) | MIC ([5]; 144 h): 50 µg/mL (≈ 138 µM) | MIC ([5]; 288 h): 75 µg/mL (≈ 206 µM) | MIC ([6]; CBS.34035, 72 h, 72 hours): 5 µg/mL (≈ 13.8 µM) | MIC ([6]; CBS.34035, 144 h, 144 hours): 25 µg/mL (≈ 68.8 µM) | MIC ([6]; CBS.34035, 288 h, 288 hours): 25 µg/mL (≈ 68.8 µM) | MIC ([7]; CBS.50148, 72 h, 72 hours): 10 µg/mL (≈ 27.5 µM) | MIC ([7]; CBS.50148, 144 h, 144 hours): 25 µg/mL (≈ 68.8 µM) | MIC ([7]; CBS.50148, 288 h, 288 hours): 25 µg/mL (≈ 68.8 µM) | MIC ([8]; CBS.562, 24 h, 24 hours): 50 µg/mL (≈ 138 µM) | MIC ([8]; CBS.562, 48 h, 48 hours): 75 µg/mL (≈ 206 µM)
Structure (SMILES): CC(=O)c1ccc(N2C(=O)CC(S(=O)(=O)C3CCCCC3)C2=O)cc1 (centres unmarked) [1-(4-acetylphenyl)-3-cyclohexyl-sulfonyl-pyrrolidine-2,5-dione]

MIC ([1]; CBS.31948, 72 h, 72 hours): 10 µg/mL (≈ 28.1 µM) | MIC ([1]; CBS.31948, 144 h, 144 hours): 50 µg/mL (≈ 141 µM) | MIC ([1]; CBS.31948, 288 h, 288 hours): 50 µg/mL (≈ 141 µM) | MIC ([2]; CBS.30338, 72 h, 72 hours): 2.5 µg/mL (≈ 7.03 µM) | MIC ([2]; CBS.30338, 144 h, 144 hours): 2.5 µg/mL (≈ 7.03 µM) | MIC ([2]; CBS.30338, 288 h, 288 hours): 2.5 µg/mL (≈ 7.03 µM) | MIC ([3]; OKI.1282, 24 h, 24 hours): 10 µg/mL (≈ 28.1 µM) | MIC ([3]; OKI.1282, 48 h, 48 hours): 25 µg/mL (≈ 70.3 µM) | MIC ([4]; CBS.12648, 72 h, 72 hours): 50 µg/mL (≈ 141 µM) | MIC ([4]; CBS.12648, 144 h, 144 hours): 100 µg/mL (≈ 281 µM) | MIC ([4]; CBS.12648, 288 h, 288 hours): 100 µg/mL (≈ 281 µM) | MIC ([5]; 72 h): 2.5 µg/mL (≈ 7.03 µM) | MIC ([5]; 144 h): 5 µg/mL (≈ 14.1 µM) | MIC ([5]; 288 h): 10 µg/mL (≈ 28.1 µM) | MIC ([6]; CBS.34035, 72 h, 72 hours): 10 µg/mL (≈ 28.1 µM) | MIC ([6]; CBS.34035, 144 h, 144 hours): 25 µg/mL (≈ 70.3 µM) | MIC ([6]; CBS.34035, 288 h, 288 hours): 25 µg/mL (≈ 70.3 µM) | MIC ([7]; CBS.50148, 72 h, 72 hours): 2.5 µg/mL (≈ 7.03 µM) | MIC ([7]; CBS.50148, 144 h, 144 hours): 2.5 µg/mL (≈ 7.03 µM) | MIC ([7]; CBS.50148, 288 h, 288 hours): 2.5 µg/mL (≈ 7.03 µM) | MIC ([8]; CBS.562, 24 h, 24 hours): 25 µg/mL (≈ 70.3 µM) | MIC ([8]; CBS.562, 48 h, 48 hours): 75 µg/mL (≈ 211 µM)
Structure (SMILES): O=C1CC(S(=O)(=O)C2CCCCC2)C(=O)N1c1cccc(Cl)c1 (centres unmarked) [1-(m-chlorphenyl)-3-cyclohexylsulfonyl-pyrrolidine-2,5-dione]
